Where no end group is shown, it is not given here.
Legend:
[1] = tested on: B16F10 melanoma tumor cells; assay: In vivo inhibition of B16F10 melanoma tumor development; set-up: species or system C57BL/6NCr female mice
Protocol: C57BL/6NCr female mice (20 g), approximately 50 days old, were shaved in the abdominal area, ear notched for identification, and, two or three days prior to receiving tumor cells, pre-injected subcutaneously with the immunostimulating drugs described.
On “day zero,” B16F10 melanoma tumor cells, cultured in αMEM medium with 10% FBS, were injected intradermally (10^5 cells in 0.1 ml) in the center of the mouse abdomen using a 26 gauge ½ inch needle. Four to five hours later, the drug treatment (as specified) was injected intradermally in a different area of the abdomen than the site of the tumor injection.
Intradermal treatments using the immunostimulatory drug (as specified) continued either every other day or on a Monday-Wednesday-Friday injection schedule. Control tumors (in mice not receiving an immunostimulatory drug) usually formed within seven to ten days. Tumors were examined by visual inspection, measured (length by width), and the area of any resulting lesion was recorded as mm^2 every five days.
Mice were euthanized by CO2 inhalation if the tumor exceeded 500 mm^2. Some experiments were terminated early if all mice in the control group were dead, but the experiments were not less than 20 days. The normal duration of an experiment was about 30 days.
Pyrularia thionin, both alone and in combination with IL-2, was effective in preventing or retarding the development of melanoma tumors when C57BL/6NCr mice were pretreated before injection with B16F10 cells, which produce melanoma tumors.

[2] = tested on: T cells in the spleen and thymus; assay: FITC Thy-1.2 staining of T cells after ip injection; assay type: in vivo, Swiss Webster mice
Protocol: Using sterile technique the spleen or thymus was removed from a mouse euthanized by CO2 gas. The organ was teased apart to collect splenocytes or thymocytes, respectively. The cells were treated with red cell lysing buffer at 37° C. to remove the erthyrocytes, then washed several times in culture medium, RPMI-10. The cells were counted using Trypan Blue exclusion to determine viable cell yield (as described above) and resuspended in PBS/1% BSA/0.1% sodium azide buffer (pH 7.2) at 2×10^7 cells/ml.
To a microfuge tube, in ice, was added 100 μl of cell suspension (2×10^7 cells/ml). Five microliters of FcγR Block (CD16/CD32 Block; Pharmingen, San Diego, Calif.), diluted to 50 μg/ml with PBS/BSA/Azide Buffer, is added. The tube was gently mixed and kept on ice for three minutes.
One hundred microliters of Thy 1.2 FITC stain (10 μg/ml) were added and the tube was gently vortexed. Cells were stained for 30 minutes at 4° C., followed by centrifugation in a microfuge centrifuge at 4500 rpm for three minutes. The cells were washed twice with 500 μl ice-cold PBS/BSA/Azide buffer, and resuspended each time by gentle vortexing.
One hundred microliters of 1% paraformaldehyde (in PBS) were added to the cell pellet, and the cells were thoroughly mixed, then incubated 20 minutes at 4° C. The cells were then washed once with 500 μl of 2.19% glycine and resuspended in 500 μl of sterile PBS.
Fifteen microliters of the stained cell suspension were placed as two non-overlapping spots on a 1-mm thick glass slide that had been cleaned with ethanol. The cell droplets were allowed to dry without spreading or using a cover slip. The slides were air-dried in a hood, covered with aluminum foil to exclude light (in order to prevent photobleaching). If the slide was pre-cleaned and dried correctly, the droplets will naturally dry to a diameter of about 10 mm. The slides should be read within one week.
Cells were evaluated using a Zeiss oil-immersion microscope (UV-lamp, filter #47; Carl Zeiss Inc., Thornwood, N.Y.). Non-stained cells appeared medium-brown in color on a dark background. […] Partially stained cells that have a partial ring were counted separately. The percentage of non-stained, partially stained, and completely stained cells was determined. At least 200 cells per slide were scored, but usually about 300-400 cells were counted.
Data set out in Table 4, and discussed above, indicate that PT stimulates mitogen activity with murine splenocytes in vitro. This could come about through the action of activated macrophages on T cells by IL-1 production and antigen presentation to the T cells. […] T cells were detected with fluorescent-labeled (FITC) Thy 1.2 monoclonal antibody, which is a general antibody for all T cells. The cells were counted manually with a fluorescent microscope, and the data are divided into cells with no stain (no fluorescence), cells with partial staining (medium fluorescence), and cells with intense staining (high fluorescence). The mice were injected with the indicated amount of PT intraperitoneally and the animals sacrificed after three days to obtain the spleen and thymus.

[3] = Toxic effect of PT on mice in vivo (LD50); set-up: species or system mouse
[4] = Immunogenicity of PT

Pyrularia thionin (KSCCRNTWARNCYNVCRLPGTISREICAKKCDCKIISGTTCPSDYPK; ends and bridges not checked; also: labeled with 125I) [PT]
development of tumors compared to mice injected with saline ([1]; 3 μg PT (with or without 100 units murine IL-2) sc five and two days prior to B16 cells and three times weekly thereafter): slowed the development of tumors | Average Tumor Size ([1]; B16 melanoma in C57 mice, sc 3 μg PT, 100 units IL-2, 20-31 days): 191 mm^2 | Number of Deaths ([1]; B16 melanoma in C57 mice, sc 3 μg PT, 100 units IL-2, total mice 12 (IL-2), 15 (PT), 24 (PT + IL-2)): 1 | Mice w/o Tumors ([1]; B16 melanoma in C57 mice, sc 3 μg PT, 100 units IL-2, total mice 12 (IL-2), 15 (PT), 24 (PT + IL-2), 20-31 days): 1 | remission of established tumors ([1]; B16 melanoma, Table 2 and FIG. 2): did not cause remission of established tumors | PT dose giving the best response ([1]; PT injected along with IL-2, per mouse): 3 µg | PT dose with little protection ([1]; per mouse, with IL-2): > 5 µg | number of T cells in the spleen and thymus ([2]; 10 μg of PT injected intraperitoneally into Swiss Webster mice): increase in the number of T cells in the spleen and thymus | Splenic cells, Medium Fluor. ([2]; Experiment 1, 7 week male mice, 10 μg PT ip, after three days, none: 13): 24 ± 4.2% | Splenic cells, High Fluor. ([2]; Experiment 1, 7 week male mice, 10 μg PT ip, after three days, none: 18): 30 ± 5.0% | Splenic cells, No Fluor. ([2]; Experiment 1, 7 week male mice, 10 μg PT ip, after three days, none: 69): 46 ± 0.4% | Splenic cells, Medium Fluor. ([2]; Experiment 2, 6 month male mice, 10 μg PT ip, after three days, none: 21): 36 ± 2.1% | Splenic cells, High Fluor. ([2]; Experiment 2, 6 month male mice, 10 μg PT ip, after three days, none: 29): 32 ± 1.4% | Splenic cells, No Fluor. ([2]; Experiment 2, 6 month male mice, 10 μg PT ip, after three days, none: 50): 32 ± 1.1% | Splenic cells, Medium Fluor. ([2]; Experiment 3, 4 month females, 5 μg PT ip, after three days, none: 24): 28 ± 2.2% | Thymus cells, High Fluor. ([2]; Experiment 3, 4 month females, 5 μg PT ip, after three days, none: 25): 39 ± 2.9% | Splenic cells, High Fluor. ([2]; Experiment 3, 4 month females, 5 μg PT ip, after three days, none: 26): 31 ± 2.5% | Thymus cells, Medium Fluor. ([2]; Experiment 3, 4 month females, 5 μg PT ip, after three days, none: 27): 29 ± 1.5% | Thymus cells, No. Fluor. ([2]; Experiment 3, 4 month females, 5 μg PT ip, after three days, none: 48): 32 ± 4.4% | Splenic cells, No Fluor. ([2]; Experiment 3, 4 month females, 5 μg PT ip, after three days, none: 50): 41 ± 3.5% | LD50 ([3]; for a 20-gram mouse): 30 µg | LD50 relative to the amount with maximal protective (immunostimulatory) effect ([3]; versus 3 μg PT): ten times greater | immunogenicity [4]: not immunogenic
